In ChEMBL document CHEMBL1148595, “Identification of Darmstoff analogs as selective agonists and antagonists of lysophosphatidic acid receptors” (Bioorg Med Chem Lett, 2006):
pEC50, pIC50, pKi: −log10 of the molar value.

Assays:
Autotaxin = Autotaxin (Homo sapiens, UniProt Q13822); assay: Inhibition of lysophospholipase D autotaxin; conditions: for residual activity: values are per cent of control
[1] = biological target: T1, Lysophosphatidic acid receptor 3 (Rattus norvegicus, UniProt Q8K5E0); assay: (§1) Activity at LPA3 receptor in RH7777 rat hepatoma cell line; type: cell-based
T1 sequence (Q8K5E0 whole entry): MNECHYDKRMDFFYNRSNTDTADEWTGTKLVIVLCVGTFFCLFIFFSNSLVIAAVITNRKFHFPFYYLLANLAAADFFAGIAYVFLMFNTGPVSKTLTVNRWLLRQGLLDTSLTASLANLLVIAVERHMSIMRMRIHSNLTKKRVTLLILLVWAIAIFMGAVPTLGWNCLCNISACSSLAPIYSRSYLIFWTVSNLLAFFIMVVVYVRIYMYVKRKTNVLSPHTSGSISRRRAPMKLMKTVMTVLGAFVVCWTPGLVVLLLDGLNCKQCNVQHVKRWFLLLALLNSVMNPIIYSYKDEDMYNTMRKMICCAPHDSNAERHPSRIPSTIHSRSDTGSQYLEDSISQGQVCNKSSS

[2] = biological target: Lysophosphatidic acid receptor 2 (Homo sapiens, UniProt Q9HBW0); assay: Activity at LPA2 receptor in RH7777 rat hepatoma cell line; type: cell-based
Sequence of Lysophosphatidic acid receptor 2 (Q9HBW0 whole entry): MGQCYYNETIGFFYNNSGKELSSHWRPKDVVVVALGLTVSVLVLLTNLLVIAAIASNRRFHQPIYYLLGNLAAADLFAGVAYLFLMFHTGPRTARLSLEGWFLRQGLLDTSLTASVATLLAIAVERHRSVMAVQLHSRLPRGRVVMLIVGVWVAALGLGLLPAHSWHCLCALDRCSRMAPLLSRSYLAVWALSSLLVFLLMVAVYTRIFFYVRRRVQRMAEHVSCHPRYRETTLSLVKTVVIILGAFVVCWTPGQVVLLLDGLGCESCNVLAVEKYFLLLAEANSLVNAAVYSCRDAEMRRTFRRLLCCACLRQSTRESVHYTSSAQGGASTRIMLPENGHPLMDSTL

[3] = biological target: Lysophosphatidic acid receptor 1 (Rattus norvegicus, UniProt P61794); assay: Activity at LPA1 receptor in RH7777 rat hepatoma cell line
Sequence of Lysophosphatidic acid receptor 1 (P61794 whole entry): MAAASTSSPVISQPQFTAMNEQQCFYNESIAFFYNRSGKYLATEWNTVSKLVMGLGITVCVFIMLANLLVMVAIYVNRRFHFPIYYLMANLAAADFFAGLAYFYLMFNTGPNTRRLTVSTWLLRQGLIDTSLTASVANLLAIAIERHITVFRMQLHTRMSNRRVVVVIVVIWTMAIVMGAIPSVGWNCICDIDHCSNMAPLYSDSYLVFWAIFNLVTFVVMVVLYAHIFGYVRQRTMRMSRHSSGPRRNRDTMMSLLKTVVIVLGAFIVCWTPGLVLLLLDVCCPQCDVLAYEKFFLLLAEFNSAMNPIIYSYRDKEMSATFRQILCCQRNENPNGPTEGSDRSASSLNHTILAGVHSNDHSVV

[4] = biological target: T2, Peroxisome proliferator-activated receptor gamma (Homo sapiens) (UniProt P37231); assay: PPARgamma activation in CV1 cells; type: cell-based; conditions: CV-1, filed as agonist
T2 sequence (whole entry): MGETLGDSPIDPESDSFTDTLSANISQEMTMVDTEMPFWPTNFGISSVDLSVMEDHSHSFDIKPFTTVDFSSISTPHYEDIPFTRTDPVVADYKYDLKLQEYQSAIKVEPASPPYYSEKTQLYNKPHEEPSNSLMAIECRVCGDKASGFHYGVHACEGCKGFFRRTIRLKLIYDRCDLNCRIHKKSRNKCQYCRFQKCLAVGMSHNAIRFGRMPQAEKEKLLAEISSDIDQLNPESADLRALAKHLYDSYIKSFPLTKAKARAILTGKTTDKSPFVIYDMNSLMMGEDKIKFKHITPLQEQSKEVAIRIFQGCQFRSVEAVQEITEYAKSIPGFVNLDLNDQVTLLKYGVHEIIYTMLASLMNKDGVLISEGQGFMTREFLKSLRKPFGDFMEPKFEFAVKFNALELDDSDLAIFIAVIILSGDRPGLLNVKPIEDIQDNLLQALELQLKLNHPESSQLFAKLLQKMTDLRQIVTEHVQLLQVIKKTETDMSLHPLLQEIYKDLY

[5] = biological target: T3, Lysophosphatidic acid receptor 3 (Rattus norvegicus) (UniProt Q8K5E0); assay: as §1; type: cell-based
T3 sequence (whole entry): T1 sequence (Q8K5E0 whole entry)

CCCCCCC/C=C/CCCCCCCC[C@@H]1OC[C@@H](COP(=O)(O)O)O1
pIC50 (Autotaxin): 6.62 | residual activity (Autotaxin): 46% | pIC50 [1]: 6.32 | pKi [1]: 6.62 | pEC50 [2]: < 5.00 | pEC50 [3]: < 5.00 | Activity [4]: Agonist

CCCCCCC/C=C/CCCCCCCC[C@H]1OC[C@H](COP(O)(O)=S)O1
pIC50 (Autotaxin): 6.60 | residual activity (Autotaxin): 74% | Emax [5]: 127% | pEC50 [1]: 6.90 | pEC50 [2]: 5.89 | Emax [2]: 77% | pEC50 [3]: 5.80 | Activity [4]: Agonist

CCCCCCC/C=C/CCCCCCCC[C@H]1OC[C@@H](COP(O)(O)=S)O1
pIC50 (Autotaxin): 6.39 | residual activity (Autotaxin): 60% | Emax [5]: 78% | pEC50 [1]: 6.58 | pEC50 [2]: 5.88 | Emax [2]: 87% | pEC50 [3]: 5.81 | Activity [4]: Agonist

CCCCCCC/C=C/CCCCCCCC[C@H]1OC[C@H](COP(=O)(O)O)O1
pIC50 (Autotaxin): 6.92 | residual activity (Autotaxin): 30% | pEC50 [2]: 5.93 | Emax [2]: 39% | Activity [4]: Agonist

CCCCCCC/C=C/CCCCCCCC[C@@H]1OC[C@@H](COP(O)(O)=S)O1
pIC50 (Autotaxin): 6.44 | residual activity (Autotaxin): 64% | Emax [5]: 102% | pEC50 [1]: 6.69 | pEC50 [2]: 5.81 | Emax [2]: 72% | pEC50 [3]: 5.65 | Activity [4]: Agonist

CCCCCCC/C=C/CCCCCCCCC1OCC(COP(=O)(O)O)O1 (stereo unspecified)
pIC50 (Autotaxin): 6.85 | residual activity (Autotaxin): 30% | pEC50 [2]: < 5.00 | pIC50 [3]: 6.04 | pKi [3]: 6.30 | Activity [4]: Agonist

CCCCCCC/C=C/CCCCCCCCC1OCC(COP(O)(O)=S)O1 (stereo unspecified)
pIC50 (Autotaxin): 6.38 | residual activity (Autotaxin): 51% | Emax [5]: 73% | pEC50 [1]: 6.19 | pEC50 [2]: 5.93 | Emax [2]: 87% | pEC50 [3]: 6.01 | Activity [4]: Agonist

CCCCCCCCc1ccc(CCCCCCC2OCC(COP(=O)(O)O)O2)cc1 (stereo unspecified)
pIC50 (Autotaxin): 6.97 | residual activity (Autotaxin): 10% | pIC50 [1]: 6.30 | pKi [1]: 6.77 | pIC50 [3]: 5.33 | pKi [3]: 5.71 | Activity [4]: Agonist

CCCCCCC/C=C/CCCCCCCC[C@@H]1OC[C@H](COP(=O)(O)O)O1
pIC50 (Autotaxin): 7.01 | residual activity (Autotaxin): 28% | pIC50 [1]: 6.87 | pKi [1]: 7.08 | pEC50 [2]: 5.77 | Emax [2]: 42% | Activity [4]: Agonist

CCCCCCC/C=C/CCCCCCCC[C@@H]1OC[C@H](COP(O)(O)=S)O1
pIC50 (Autotaxin): 6.46 | residual activity (Autotaxin): 66% | Emax [5]: 113% | pEC50 [1]: 6.71 | pEC50 [2]: 5.96 | Emax [2]: 85% | pEC50 [3]: 5.85 | Activity [4]: Agonist

CCCCCCC/C=C/CCCCCCCC[C@H]1OC[C@@H](COP(=O)(O)O)O1
pIC50 (Autotaxin): 6.75 | residual activity (Autotaxin): 25% | pIC50 [1]: 6.68 | pKi [1]: 7.11 | Activity [4]: Agonist

CCCCCCCCCCCCC1OCC(COP(=O)(O)O)O1 (stereo unspecified)
residual activity (Autotaxin): 26% | pIC50 [2]: 5.13 | pKi [2]: 6.13 | pIC50 [3]: 5.95 | pKi [3]: 6.19 | Activity [4]: Agonist

CCCCCCCCc1ccc(CCCCCCC2OCC(COP(O)(O)=S)O2)cc1 (stereo unspecified)
pIC50 (Autotaxin): 6.35 | residual activity (Autotaxin): 55% | Emax [5]: 87% | pEC50 [1]: 6.16 | Activity [4]: Agonist

C/C=C/C/C=C/C/C=C/CCCCCCCCC1OCC(COP(=O)(O)O)O1 (stereo unspecified)
pIC50 (Autotaxin): 6.10 | residual activity (Autotaxin): 54% | Emax [5]: 29% | pEC50 [1]: 5.12 | pEC50 [2]: 5.77 | Emax [2]: 51% | pEC50 [3]: 5.44 | Activity [4]: Agonist
